From patent US4166861A, “Pharmacologically active polyphenolic substances” (Inverni della Beffa S.p.A., priority 1976, dated 1979)
Where two headings read alike, the source gives them in different places.

Columns and labels:
Toxicity (LD50) = type: in vivo; conditions: for LD50: in vivo
[1] = Choleretic activity in the rat, intraperitoneal administration (bile volume and dry residue); type: in vivo, Sprague Dawley rats; conditions: for Bile Volume 3 Hours after Treatment / Dry Residue 3 Hours after Treatment / increase of the dry residue of the bile in comparison with the basal values / increase of the volume of the bile in comparison with the basal values: 100 mg/kg i.p.; for Bile Volume 3 Hours after Treatment / Dry Residue 3 Hours after Treatment: awake rat; for increase of the dry residue of the bile in comparison with the basal values / increase of the volume of the bile in comparison with the basal values: measured from 1 hour to 4 hours after administration; for choleretic action (in words): Table 2, 100 mg/kg i.p., bile volume and dry residue three hours after treatment
Procedure: (§1) The choleretic activity was determined in accordance with the technique described by R. Lambert in "Surgery of the Digestive System in the Rat" 1965. Sprague Dawley rats of mean weight of 230 g. were used. The products were injected intraperitoneally at the dosage of 100 mg/kg., the volume of the bile and the corresponding dry residue being measured then from 1 hour to 4 hours after administration. […] These increases are significant.
2. Choleretic Activity--Intra-Peritoneal Administration
The choleretic activities of catechin and catechin pentacetyl ferulate were determined in the manner described in paragraph A above.

[2] = Triton hyperlipaemia in the rat (plasma cholesterol and triglycerides); type: in vivo, Sprague Dawley rats; conditions: 100 mg/kg i.p. (50 mg/kg immediately after Triton, 50 mg/kg after 4 hours); significant
Procedure: The products under examination were injected intraperitoneally at the dosage of 100 mg./kg. of which 50 mg./kg. immediately after the Triton and 50 mg./kg. after 4 hours. After a further 4 hours the animals were slaughtered and the cholesterol and triglycerides in the plasma were measured.

[3] = Lipidic metabolism in the normally fed rat (plasma free fatty acids); type: in vivo, Sprague Dawley rats; conditions: single dose 100 mg/kg i.p., after two hours; normolipaemic rats; significant
Procedure: The tests were conducted on Sprague Dawley rats of mean weight of 200 g. which were normolipaemic and to which the products had been administered intraperitoneally in a single dose of 100 mg./kg. After two hours the animals were slaughtered and the free fatty acids in the plasma were measured.

[4] = Choleretic activity in the rat, oral administration (bile volume and dry residue); type: in vivo, Sprague Dawley rats; conditions: 200 mg/kg per os; for Bile Volume 2 Hours after Treatment / Dry Residue 2 Hours after Treatment / Bile Volume 3 Hours after Treatment / Dry Residue 3 Hours after Treatment: awake rat
Procedure: as §1
1. Choleretic Activity--Oral Administration
The choleretic activities of catechin and epicatechin were determined in the manner described in paragraph A above except that the substances under test were administered per os at the rate of 200 mg./kg.

[5] = Olive oil-induced hyperlipaemia in the rat (plasma triglycerides); type: in vivo, Sprague Dawley rats; conditions: for diminution of the concentration of triglycerides in the plasma in comparison with the controls: 100 mg/kg orally, two treatments, 2 h before and 2 h after olive oil, significant; for Triglycerides: 100 mg/kg per os, controls (water) 171.5±18.6; for hypolipaemic effect (in words): Table 3, 100 mg/kg per os
Procedure: The hyperlipaemic activity was determined in Sprague Dawley rats of mean weight of 160 g., in which hyperlipaemia was induced by means of administration of 20 ml./kg. of olive oil orally in animals which had been fasting for 16 hours. Two treatments were effected with the products under examination (upon groups of 18 animals), the first two hours before the olive oil, the second two hours afterwards. The doses were administered orally and were equal to 100 mg./kg.
3. Hypolipaemic Effect--Effect on Olive Oil-Induced Hyperlipaemia
The hypolipaemic activity of catechin and epicatechin was determined in the manner described in paragraph B1 above.

[6] = epicatechin compared with catechin

Row | Structure (SMILES) | Bile Volume 3 Hours after Treatment [1] | Dry Residue 3 Hours after Treatment [1] | increase of the dry residue of the bile in comparison with the basal values [1] | increase of the volume of the bile in comparison with the basal values [1] | choleretic action (in words) [1] | diminution of the concentration of cholesterol in the plasma in comparison with the controls [2] | diminution of the concentration of triglycerides in the plasma in comparison with the controls [2] | diminution of the concentration of free fatty acids in the plasma in comparison with the controls [3] | Bile Volume 2 Hours after Treatment [4] | Dry Residue 2 Hours after Treatment [4] | Bile Volume 3 Hours after Treatment [4] | Dry Residue 3 Hours after Treatment [4] | diminution of the concentration of triglycerides in the plasma in comparison with the controls [5] | Triglycerides [5] | hypolipaemic effect (in words) [5] | further results
1 | COc1cc(C=CC(=O)Oc2cc(OC(=O)C=Cc3ccc(OC(C)=O)c(OC)c3)c3c(c2)O[C@H](c2ccc(OC(=O)C=Cc4ccc(OC(C)=O)c(OC)c4)c(OC(=O)C=Cc4ccc(OC(C)=O)c(OC)c4)c2)[C@@H](OC(=O)C=Cc2ccc(OC(C)=O)c(OC)c2)C3)ccc1OC(C)=O [Catechin pentacetylferulate, catechin peracetylferulate] | 0.88 ± 0.05 mL | 15.6 ± 0.60 mg | 36% | 64% | marked choleretic action | – | – | – | – | – | – | – | – | – | – | LD50 i.p. (Toxicity (LD50); i.p.): > 1000 mg/kg
2 | CC(=O)Oc1cc(OC(C)=O)c2c(c1)O[C@H](c1ccc(OC(C)=O)c(OC(C)=O)c1)[C@@H](OC(C)=O)C2 [Example 4, Catechin pentaacetate] | – | – | – | – | – | 16.3% | 23.1% | – | – | – | – | – | – | – | – | –
3 | CC1(C)Oc2ccc([C@H]3Oc4cc(O)cc(O)c4C[C@@H]3O)cc2O1 [catechin acetonide] | – | – | – | – | – | – | – | 25.8% | – | – | – | – | – | – | – | –
4 | Oc1cc(O)c2c(c1)O[C@H](c1ccc(O)c(O)c1)[C@H](O)C2 [Epicatechin, epicatechin] | – | – | 35% | 38% | – | – | – | – | 1.02 ± 0.07 mL | 18.1 ± 2.0 mg | 0.89 ± 0.09 mL | 16.5 ± 2.13 mg | 42% | 98.6±12.0 mg/100 ml | marked hypolipaemic effect | choleretic activity (in words) [4, 6]: markedly higher choleretic activity than catechin; duration of choleretic effect (in words) [4, 6]: the choleretic effect is of longer duration
5 | O=C(Oc1cc(OC(=O)c2cccnc2)c2c(c1)O[C@H](c1ccc(OC(=O)c3cccnc3)c(OC(=O)c3cccnc3)c1)[C@@H](OC(=O)c1cccnc1)C2)c1cccnc1 [pernicotinylcatechin] | – | – | – | – | – | 21.1% | 28.7% | 13.1% | – | – | – | – | 27% | – | – | –
6 | Oc1cc(O)c2c(c1)O[C@H](c1ccc(O)c(O)c1)[C@@H](O)C2 [Catechin, catechin, reference compound] | 0.62 ± 0.08 mL | 10.0 ± 4.20 mg | – | – | no statistically significant choleretic effect | – | – | – | 0.84 ± 0.02 mL | 18.2 ± 0.37 mg | 0.81 ± 0.03 mL | 16.6 ± 0.81 mg | – | 120.7±17.6 mg/100 ml | no statistically significant hypolipaemic effect | LD50 (Toxicity (LD50); ip, read-out: LD50 i.p.): > 1000 mg/kg; LD50 (Toxicity (LD50); po, per os, read-out: LD50 per os): > 2000 mg/kg
